Test results: patent US9394291B2, “Benzoxazinone amides as mineralocorticoid receptor modulators” (AstraZeneca AB, priority 2014, dated 2016)
Where two headings read alike, the source gives them in different places.

Tests used:
[1] = biological target: T1, MR (UAS-MR-bla HEK293 cells) (Homo sapiens, UniProt P08235); assay: cell-based
[2] = biological target: T1, MR (UAS-MR-bla HEK293 cells); assay: Mineralocorticoid Cellular Reporter Gene Assay, Test B1 (0.25 nM aldosterone)
[3] = biological target: T2, human MR LBD (Homo sapiens (Human), UniProt P08235); assay: Mineralocorticoid Binding, Test A1 (SPA beads, 3H-aldosterone displacement); details: displacement of 5 nM 3H-aldosterone, MBP-MR LBD/P23 lysate
[4] = biological target: T2, human MR LBD; details: read-out: Test A2 IC50; displacement of 5 nM 3H-aldosterone, MBP-MR LBD/P23 lysate, Imaging beads
Procedure: In order to identify binding to the human MR LBD a scintillation proximity assay (SPA) was adapted to the 384-well format. The MR-LBD (amino acids T729-K985) was expressed as N-terminal fusion with maltose binding protein in Hi5 insect cells by co-infection with recombinant MBP-MR LBD and P23 baculoviruses and crude protein lysate was used in the assay.
Briefly, in Test A1 the assay was run in 384 well format in 10 mM Tris-HCl, pH 7.5, 0.5 mM EDTA 20 mM NaMoO4, 0.1 mM DTT and 10% glycerol at rt. Compounds were tested in a 7 (Test A1) or 10 (Test A2) concentration response curve ranging from 10 nM to 10 μM (Test A1) or 1 nM to 37 μM (Test A2). Compounds were spotted at the bottom of a well of a 384-well PE Opti-Plate to yield final DMSO concentrations in the assay of 2%. Pre-made MBP-MR/P23 lysate: ^3H-aldosterone mix (final assay concentration 7 μg/mL MBP-MR LBD/P23 lysate; 5 nM aldosterone) was added onto the top of the spotted compound and preincubated for 1 h at RT. […] The inhibition of the scintillation signal by displacement of the bound ^3H-aldosterone by test compounds is measured by scintillation counting using a Microbeta Trilux (Wallac) (Test A1) or a by CCD camera detection using a LEADseeker (PerkinElmer) (Test A2).

T1 sequence (P08235 whole entry, looked up): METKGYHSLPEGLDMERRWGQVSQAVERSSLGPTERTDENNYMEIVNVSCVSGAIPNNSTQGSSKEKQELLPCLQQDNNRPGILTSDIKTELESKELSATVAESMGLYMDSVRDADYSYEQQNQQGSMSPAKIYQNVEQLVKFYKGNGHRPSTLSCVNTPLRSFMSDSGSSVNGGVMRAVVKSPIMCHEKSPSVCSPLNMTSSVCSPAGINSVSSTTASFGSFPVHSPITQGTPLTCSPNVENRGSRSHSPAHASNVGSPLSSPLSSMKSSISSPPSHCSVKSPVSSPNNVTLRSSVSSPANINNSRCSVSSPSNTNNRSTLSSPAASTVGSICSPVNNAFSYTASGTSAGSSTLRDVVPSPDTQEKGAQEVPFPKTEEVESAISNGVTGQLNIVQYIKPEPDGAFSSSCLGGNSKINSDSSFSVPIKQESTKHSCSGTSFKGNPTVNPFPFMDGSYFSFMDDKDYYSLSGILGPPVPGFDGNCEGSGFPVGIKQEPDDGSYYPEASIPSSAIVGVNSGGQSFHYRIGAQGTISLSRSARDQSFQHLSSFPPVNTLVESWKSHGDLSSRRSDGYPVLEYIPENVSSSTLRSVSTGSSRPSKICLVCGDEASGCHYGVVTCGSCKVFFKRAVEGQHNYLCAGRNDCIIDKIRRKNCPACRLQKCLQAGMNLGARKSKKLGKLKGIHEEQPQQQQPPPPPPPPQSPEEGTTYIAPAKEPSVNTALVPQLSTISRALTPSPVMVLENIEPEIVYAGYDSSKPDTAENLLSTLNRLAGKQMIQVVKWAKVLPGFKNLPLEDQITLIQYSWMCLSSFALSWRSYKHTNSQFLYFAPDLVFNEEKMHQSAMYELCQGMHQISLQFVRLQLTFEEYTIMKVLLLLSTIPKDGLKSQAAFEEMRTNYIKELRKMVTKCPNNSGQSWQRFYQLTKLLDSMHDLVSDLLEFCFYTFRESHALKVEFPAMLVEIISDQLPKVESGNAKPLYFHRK
T2 sequence (P08235 729-984 limits assumed): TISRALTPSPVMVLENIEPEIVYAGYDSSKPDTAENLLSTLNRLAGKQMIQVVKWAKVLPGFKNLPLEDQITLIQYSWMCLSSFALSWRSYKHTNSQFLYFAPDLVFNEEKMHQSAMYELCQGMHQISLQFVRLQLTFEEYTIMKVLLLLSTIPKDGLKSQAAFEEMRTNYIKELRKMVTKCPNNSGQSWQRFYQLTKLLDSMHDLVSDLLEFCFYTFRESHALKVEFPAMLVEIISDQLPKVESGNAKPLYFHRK

Row | IC50 [1] [µM] | IC50 [4] [µM] | SMILES | IC50 [2] [µM] | IC50 [3] [µM] | inhibition at 100 µM ([2]; HEK293, read-out: Test B1, % at 100 μM) [%]
1 | 0.62 | 2.9 | NC(=O)CC1COc2ccccc2N1C(=O)c1ccc2c(c1)NC(=O)CO2 (stereo not shown) [Example 1] | 2.1 | 1.4 | –
2 | – | – | CNC(=O)C[C@@H]1COc2cc(F)ccc2N1C(=O)c1ccc2c(c1)NC(=O)CO2 [Example 4b, 2-{(3R)-7-Fluoro-4-[(3-oxo-3,4-dihydro-2H-1,4-benzoxazin-6-yl)carbonyl]-3,4-dihydro-2H-1,4-benzoxazin-3-yl}-N-methylacetamide] | – | – | 35
3 | – | – | NC(=O)C[C@H]1COc2cc(Br)ccc2N1C(=O)c1ccc2c(c1)NC(=O)CO2 [Example 7, 2-{(3S)-7-Bromo-4-[(3-oxo-3,4-dihydro-2H-1,4-benzoxazin-6-yl)carbonyl]-3,4-dihydro-2H-1,4-benzoxazin-3-yl}acetamide] | 0.045 | 0.0095 | –
